One assay deals with Caspase 3. The experiment in a line: Caspase 3 protein level in dorsal root ganglion of SNL rats via Western blotting (Examples 10, 17). The assay is classed as in vivo, Sprague Dawley rats. Conditions: Left DRG of SNL rats, 160 mg/Kg PO for 5 days, vs. Vehicle treated SNL rats, unpaired t-test. The source says: Western blotting is a widely used analytical technique used to detect specific proteins in a sample of tissue homogenate or extract. Before one can perform Western blotting one must develop a technique for extracting the protein to be measured from the target tissue. Below is an example of the measurement of Caspase 3 from rat dorsal root ganglion (DRG) using Western blotting.
Protein Extraction Preparation: Frozen DRG tissue samples were homogenized in a radioimmunoprecipitation assay (RIPA) buffer (75 μl per sample) using a handheld pestle homogenizer, 30 seconds on ice. Samples were cleared by centrifugation at 14,000 rpm for 15 minutes at 4° C. Supernatants were collected and protein amount was determined using Bio-Rad DC protein kit.
Western Blotting: Protein samples were denatured in Laemmli buffer/2-mercaptoethanol for 5 minutes at 95 C. Denatured protein samples were separated by SDS-PAGE. After electrophoresis, proteins were transferred from gel to LFP-PVDF membranes by electroblotting. […]
Antibody binding was detected using the ECL Plus Western Chemifluorescence Detection Kit (Cat #32132, ThermoFisher Scientific). […] The scanned images from the Typhoon were analyzed with ImageQuantTL software version 7.0 (GE Healthcare Bioscience, Piscataway, NJ). Band intensities were determined using the Rolling Ball method. […]
For orientation: Immunoblotting shows a protein as a band on a membrane.

Assay [1] relates to TDP-43 overexpressed flies. The experiment in a line: TDP-43 pupal lethality screen (Example 23). The assay is classed as in vivo, Drosophila. Particulars: larvae raised on 1 microMolar; DMSO control 51%. The protocol: Procedure: UAS TDP-43 male Drosophila flies were crossed with D42-Gal4 female virgins on fly food containing either DMSO or 1% Compound 118 in dimethyl sulfoxide (DMSO). For DMSO controls, the same volume of DMSO as the corresponding Compound 118 concentration was added. Bromophenol blue was added to a final concentration of around 0.02% to ensure homogeneity. Crosses were made on drug food with three female virgins and two males in each vial and were maintained at 25° C. unless noted. The parents were discarded after 5-7 days and then the vials were screened for adult progeny with straight wings from Day 14 to Day 25. All adults were screened for TDP-43 expression by visualizing the YFP tag. Total number of pupae was counted on Day 25. Percent survival was calculated using the formula (total number of straight-winged adults/total number of pupae)×100. All experiments were performed in triplicate. Read-outs include larval turning assay and pupil lethality screen.
Compound 118 (represented as AQU-118) caused a decrease in lethality from 51% (bottom left) to 39% (bottom right). In this screen the number of adult TDP-43 overexpressed flies that emerge from their pupae stage is compared to w1118 controls. Larvae were raised on either DMSO or Compound 118 at 1 microMolar. N=number of pupae counted. Alive=empty pupal cases, adults have emerged. […]

Entries after “also recorded” stand apart in the source; their conditions may differ.

With `[2H]C([2H])([2H])c1ccc(C#Cc2ccc(S(=O)(=O)N[C@H](Cc3c[nH]c4ccccc34)C(=O)O)s2)cc1` [Compound 118, (R)-3-(1H-Indol-3-yl)-2-[5-(4-trideuteromethyl-phenylethynyl)-thiophene-2-sulfonylamino]-propionic acid-(D3, 98%)], the “caspase 3 protein level in dorsal root ganglion (Western blotting)” value with Caspase 3 was “significant decrease of caspase 3 protein; also recorded: decrease in the caspase-3 protein levels”. Further, in assay [1], the “lethality (dead pupae)” value worked out at 39%.

The values are drawn from patent publication US12589090B2, “Compounds and methods for the treatment of degenerative disorders” (Aquilus Pharmaceuticals, Inc., priority 2019, dated 2026).
